Laboratory results taken from PubChem BioAssay (NCI).
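48-hour exposure; five concentrations; linearly interpolated endpoints. The concentration for 50% growth inhibition is given as GI50. TGI marks complete inhibition of growth.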

Tests used:
Test in all cases: NCI-60 cell line screen, 48 h
NCI-H522 lung = tested on: NCI-H522 lung
SN12C renal = tested on: SN12C renal
U251 CNS = tested on: U251 CNS
T-47D breast = tested on: T-47D breast
BT-549 breast = tested on: BT-549 breast
MDA-MB-435 = tested on: MDA-MB-435
OVCAR-3 ovarian = tested on: OVCAR-3 ovarian
SW-620 colon = tested on: SW-620 colon
M14 melanoma = tested on: M14 melanoma
HOP-62 NSCLC = tested on: HOP-62 NSCLC
HCC-2998 colon = tested on: HCC-2998 colon
LOX IMVI melanoma = tested on: LOX IMVI melanoma
HCT-116 colon = tested on: HCT-116 colon
UACC-62 melanoma = tested on: UACC-62 melanoma
OVCAR-8 ovarian = tested on: OVCAR-8 ovarian
UO-31 renal = tested on: UO-31 renal
ACHN renal = tested on: ACHN renal
MALME-3M melanoma = tested on: MALME-3M melanoma
OVCAR-5 ovarian = tested on: OVCAR-5 ovarian
TK-10 renal = tested on: TK-10 renal
EKVX NSCLC = tested on: EKVX NSCLC
SF-268 CNS = tested on: SF-268 CNS
COLO 205 colon = tested on: COLO 205 colon
RXF 393 renal = tested on: RXF 393 renal
A498 renal = tested on: A498 renal
A549 NSCLC = tested on: A549 NSCLC
IGROV1 ovarian = tested on: IGROV1 ovarian
PC-3 prostate = tested on: PC-3 prostate
NCI-H226 lung = tested on: NCI-H226 lung
SK-MEL-2 melanoma = tested on: SK-MEL-2 melanoma
HT29 colon = tested on: HT29 colon
HL-60(TB) leukemia = tested on: HL-60(TB) leukemia
NCI-H460 lung = tested on: NCI-H460 lung
SNB-19 CNS = tested on: SNB-19 CNS
SNB-75 CNS = tested on: SNB-75 CNS
HCT-15 colon = tested on: HCT-15 colon
SK-MEL-5 melanoma = tested on: SK-MEL-5 melanoma
SF-539 CNS = tested on: SF-539 CNS
KM12 colon = tested on: KM12 colon
UACC-257 melanoma = tested on: UACC-257 melanoma
DU-145 prostate = tested on: DU-145 prostate
786-0 renal = tested on: 786-0 renal
SR leukemia = tested on: SR leukemia
SK-OV-3 ovarian = tested on: SK-OV-3 ovarian
CAKI-1 renal = tested on: CAKI-1 renal
MCF7 breast = tested on: MCF7 breast
K-562 leukemia = tested on: K-562 leukemia
MOLT-4 leukemia = tested on: MOLT-4 leukemia
MDA-MB-231 breast = tested on: MDA-MB-231 breast
CCRF-CEM leukemia = tested on: CCRF-CEM leukemia
OVCAR-4 ovarian = tested on: OVCAR-4 ovarian
NCI-H23 lung = tested on: NCI-H23 lung
MDA-MB-468 breast = tested on: MDA-MB-468 breast
HS 578T breast = tested on: HS 578T breast
SF-295 CNS = tested on: SF-295 CNS
HOP-92 NSCLC = tested on: HOP-92 NSCLC
SK-MEL-28 melanoma = tested on: SK-MEL-28 melanoma
RPMI-8226 leukemia = tested on: RPMI-8226 leukemia

Compound: COc1ccc2nc(Nc3cccc(NC(=O)c4ccc(CN5CCN(C)CC5)c(C(F)(F)F)c4)c3)ccc2c1
- GI50 (NCI-H522 lung): 4.88 µM
- TGI (NCI-H522 lung): 10.3 µM
- GI50 (SN12C renal): 5.49 µM
- TGI (SN12C renal): 10.8 µM
- GI50 (U251 CNS): 3.77 µM
- TGI (U251 CNS): 8.84 µM
- GI50 (T-47D breast): 4.12 µM
- TGI (T-47D breast): 9.96 µM
- GI50 (BT-549 breast): 5.58 µM
- TGI (BT-549 breast): 10.9 µM
- GI50 (MDA-MB-435): 5.73 µM
- TGI (MDA-MB-435): 11 µM
- GI50 (OVCAR-3 ovarian): 5.89 µM
- TGI (OVCAR-3 ovarian): 11.2 µM
- GI50 (SW-620 colon): 5.89 µM
- TGI (SW-620 colon): 11.6 µM
- GI50 (M14 melanoma): 3.63 µM
- TGI (M14 melanoma): 8.58 µM
- GI50 (HOP-62 NSCLC): 6.36 µM
- TGI (HOP-62 NSCLC): 12 µM
- GI50 (HCC-2998 colon): 5.25 µM
- TGI (HCC-2998 colon): 10.7 µM
- GI50 (LOX IMVI melanoma): 1.55 µM
- TGI (LOX IMVI melanoma): 6.05 µM
- GI50 (HCT-116 colon): 2.41 µM
- TGI (HCT-116 colon): 7.74 µM
- GI50 (UACC-62 melanoma): 6.45 µM
- TGI (UACC-62 melanoma): 11.9 µM
- GI50 (OVCAR-8 ovarian): 5.82 µM
- TGI (OVCAR-8 ovarian): 11.1 µM
- GI50 (UO-31 renal): 5.68 µM
- TGI (UO-31 renal): 10.9 µM
- GI50 (ACHN renal): 4.88 µM
- TGI (ACHN renal): 9.84 µM
- GI50 (MALME-3M melanoma): 4.62 µM
- TGI (MALME-3M melanoma): 9.54 µM
- GI50 (OVCAR-5 ovarian): 6.1 µM
- TGI (OVCAR-5 ovarian): 11.5 µM
- GI50 (TK-10 renal): 6.52 µM
- TGI (TK-10 renal): 12.1 µM
- GI50 (EKVX NSCLC): 4.53 µM
- TGI (EKVX NSCLC): 9.61 µM
- GI50 (SF-268 CNS): 5.2 µM
- TGI (SF-268 CNS): 12.5 µM
- GI50 (COLO 205 colon): 5.78 µM
- TGI (COLO 205 colon): 11.7 µM
- GI50 (RXF 393 renal): 1.75 µM
- TGI (RXF 393 renal): 6.96 µM
- GI50 (A498 renal): 7.36 µM
- TGI (A498 renal): 13.2 µM
- GI50 (A549 NSCLC): 4.36 µM
- TGI (A549 NSCLC): 9.66 µM
- GI50 (IGROV1 ovarian): 6.22 µM
- TGI (IGROV1 ovarian): 12.3 µM
- GI50 (PC-3 prostate): 2.9 µM
- TGI (PC-3 prostate): 8.68 µM
- GI50 (NCI-H226 lung): 4.6 µM
- TGI (NCI-H226 lung): 9.77 µM
- GI50 (SK-MEL-2 melanoma): 5.98 µM
- TGI (SK-MEL-2 melanoma): 11.4 µM
- GI50 (HT29 colon): 1.32 µM
- TGI (HT29 colon): 5.08 µM
- GI50 (HL-60(TB) leukemia): 5.46 µM
- TGI (HL-60(TB) leukemia): 12.4 µM
- GI50 (NCI-H460 lung): 1.88 µM
- TGI (NCI-H460 lung): 7.21 µM
- GI50 (SNB-19 CNS): 6.14 µM
- TGI (SNB-19 CNS): 11.5 µM
- GI50 (SNB-75 CNS): 0.684 µM
- TGI (SNB-75 CNS): 6.45 µM
- GI50 (HCT-15 colon): 1.18 µM
- TGI (HCT-15 colon): 4.45 µM
- GI50 (SK-MEL-5 melanoma): 5.1 µM
- TGI (SK-MEL-5 melanoma): 10.2 µM
- GI50 (SF-539 CNS): 2.08 µM
- TGI (SF-539 CNS): 7.59 µM
- GI50 (KM12 colon): 4.05 µM
- TGI (KM12 colon): 9.62 µM
- GI50 (UACC-257 melanoma): 4.35 µM
- TGI (UACC-257 melanoma): 9.13 µM
- GI50 (DU-145 prostate): 5.23 µM
- TGI (DU-145 prostate): 10.4 µM
- GI50 (786-0 renal): 4.99 µM
- TGI (786-0 renal): 10.1 µM
- GI50 (SR leukemia): 1.31 µM
- TGI (SR leukemia): 5.72 µM
- GI50 (SK-OV-3 ovarian): 5.99 µM
- TGI (SK-OV-3 ovarian): 11.4 µM
- GI50 (CAKI-1 renal): 4.9 µM
- TGI (CAKI-1 renal): 9.97 µM
- GI50 (MCF7 breast): 1.37 µM
- TGI (MCF7 breast): 6.12 µM
- GI50 (K-562 leukemia): 0.882 µM
- TGI (K-562 leukemia): 2.59 µM
- GI50 (MOLT-4 leukemia): 1.63 µM
- TGI (MOLT-4 leukemia): 6.75 µM
- GI50 (MDA-MB-231 breast): 1.84 µM
- TGI (MDA-MB-231 breast): 6.49 µM
- GI50 (CCRF-CEM leukemia): 2.15 µM
- TGI (CCRF-CEM leukemia): 7.65 µM
- GI50 (OVCAR-4 ovarian): 4.32 µM
- TGI (OVCAR-4 ovarian): 10 µM
- GI50 (NCI-H23 lung): 5.06 µM
- TGI (NCI-H23 lung): 10.4 µM
- GI50 (MDA-MB-468 breast): 1.56 µM
- TGI (MDA-MB-468 breast): 7.09 µM
- GI50 (HS 578T breast): 4.14 µM
- TGI (HS 578T breast): 15 µM
- GI50 (SF-295 CNS): 3.41 µM
- TGI (SF-295 CNS): 8.74 µM
- GI50 (HOP-92 NSCLC): 1.36 µM
- TGI (HOP-92 NSCLC): 6.15 µM
- GI50 (SK-MEL-28 melanoma): 5.33 µM
- TGI (SK-MEL-28 melanoma): 10.4 µM
- GI50 (RPMI-8226 leukemia): 3.14 µM
- TGI (RPMI-8226 leukemia): 10.3 µM
